Assay results taken from patent US20240350643A1, “PROTEIN DEGRADATION AGENT” (SUZHOU KINTOR PHARMACEUTICALS, INC., priority 2021, published 2024).

How the values were obtained:
[1] = biological target: T1, c-Myc protein (Homo sapiens, UniProt P01106); test: Ability of compounds to degrade c-Myc protein in HL60 cells (ELISA); assay type: cell-based; conditions: HL-60, 1 μM compound, 24 h, read-out: HL60 cells Protein degradation rate (1 μM)
T1 construct: endogenous in cells; host or cells: HL60 cells

[2] = test system: HL60 cells; test: Anti-proliferation ability of compounds on HL60 cells (CTG); assay type: cell-based, human; conditions: Homo sapiens, HL-60, 72 h, 3 days, CellTiter-Glo, read-out: HL60 cells Proliferation inhibitory activity
In short: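 Proliferation inhibition IC50 derived from CellTiter-Glo luminescence after 3-day compound treatment of HL60 cells plated at 20000 per well, against 0.1% DMSO controls.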

T1 sequence (P01106 whole entry): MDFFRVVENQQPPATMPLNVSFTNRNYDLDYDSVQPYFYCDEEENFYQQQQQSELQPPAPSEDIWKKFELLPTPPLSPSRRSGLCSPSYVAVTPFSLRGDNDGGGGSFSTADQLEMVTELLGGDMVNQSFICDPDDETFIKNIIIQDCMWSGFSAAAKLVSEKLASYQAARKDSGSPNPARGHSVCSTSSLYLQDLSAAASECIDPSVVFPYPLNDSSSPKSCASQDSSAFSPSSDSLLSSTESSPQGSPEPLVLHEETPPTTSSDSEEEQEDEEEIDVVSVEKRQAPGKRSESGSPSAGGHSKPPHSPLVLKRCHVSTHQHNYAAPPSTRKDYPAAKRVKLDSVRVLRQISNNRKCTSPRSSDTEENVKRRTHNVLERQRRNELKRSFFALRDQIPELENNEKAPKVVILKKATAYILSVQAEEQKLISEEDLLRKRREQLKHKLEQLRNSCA

Structure (SMILES)	inhibition at 1 µM [1]	IC50 [2]
COc1cc(CNC(=O)Cn2c3ccccc3c3cccnc32)ccc1CNC(=O)c1ccc2c(c1)C(=O)N(C1CCC(=O)NC1=O)C2=O (stereo not drawn) [A112]	60 to 90%	3 ± 0.1 nM
COc1cc(CN(C)CCc2cccc3ccccc23)ccc1CNC(=O)c1ccc2c(c1)C(=O)N(C1CCC(=O)NC1=O)C2=O (stereo not drawn) [A113]	60 to 90%	4.4 ± 3.2 nM
COc1cc(CN(C)CCn2c3ccccc3c3cccnc32)ccc1CNC(=O)c1ccc2c(c1)C(=O)N(C1CCC(=O)NC1=O)C2=O (stereo not drawn) [A114]	60 to 90%	6.5 ± 0.3 nM
COc1cc(CNC(=O)c2ccc3c(c2)C(=O)N(C2CCC(=O)NC2=O)C3=O)ccc1CNC(=O)Cc1cccc2ccccc12 (stereo not drawn) [A115]	60 to 90%	8.6 ± 1.8 nM
COc1cc(CNC(=O)c2ccc3c(c2)C(=O)N(C2CCC(=O)NC2=O)C3=O)ccc1CNC(=O)Cn1c2ccccc2c2cccnc21 (stereo not drawn) [A116]	60 to 90%	5.5 ± 3.3 nM
O=C(Cc1cccc2ccccc12)NCc1ccc(CNC(=O)c2ccc3c(c2)C(=O)N(C2CCC(=O)NC2=O)C3=O)c(C(F)(F)F)c1 (stereo not drawn) [A117]	60 to 90%	13.8 ± 4 nM
O=C(Cn1c2ccccc2c2cccnc21)NCc1ccc(CNC(=O)c2ccc3c(c2)C(=O)N(C2CCC(=O)NC2=O)C3=O)c(C(F)(F)F)c1 (stereo not drawn) [A118]	60 to 90%	18.2 ± 11.4 nM
CN(CCc1cccc2ccccc12)Cc1ccc(CNC(=O)c2ccc3c(c2)C(=O)N(C2CCC(=O)NC2=O)C3=O)c(C(F)(F)F)c1 (stereo not drawn) [A119]	60 to 90%	44.4 ± 0.3 nM
CN(CCn1c2ccccc2c2cccnc21)Cc1ccc(CNC(=O)c2ccc3c(c2)C(=O)N(C2CCC(=O)NC2=O)C3=O)c(C(F)(F)F)c1 (stereo not drawn) [A120]	60 to 90%	17.8 ± 4.9 nM
O=C(Cc1cccc2ccccc12)NCc1ccc(CNC(=O)c2ccc3c(c2)C(=O)N(C2CCC(=O)NC2=O)C3=O)cc1C(F)(F)F (stereo not drawn) [A121]	60 to 90%	6.3 ± 3 nM
O=C(Cn1c2ccccc2c2cccnc21)NCc1ccc(CNC(=O)c2ccc3c(c2)C(=O)N(C2CCC(=O)NC2=O)C3=O)cc1C(F)(F)F (stereo not drawn) [A122]	60 to 90%	5.9 ± 3.9 nM
CN(CCn1c2ccccc2c2cccnc21)Cc1ccc(CNC(=O)c2ccc3c(c2)C(=O)N(C2CCC(=O)NC2=O)C3=O)cc1C(F)(F)F (stereo not drawn) [A123]	60 to 90%	35.2 ± 9.3 nM
O=C(Cc1cccc2ccccc12)NCc1ccc(CNC(=O)c2ccc3c(c2)C(=O)N(C2CCC(=O)NC2=O)C3=O)nc1 (stereo not drawn) [A124]	10 to 30%	1100 ± 295 nM
O=C(Cn1c2ccccc2c2cccnc21)NCc1ccc(CNC(=O)c2ccc3c(c2)C(=O)N(C2CCC(=O)NC2=O)C3=O)nc1 (stereo not drawn) [A125]	60 to 90%	26.1 ± 2 nM
CN(CCc1cccc2ccccc12)Cc1ccc(CNC(=O)c2ccc3c(c2)C(=O)N(C2CCC(=O)NC2=O)C3=O)nc1 (stereo not drawn) [A126]	60 to 90%	8.5 ± 0.4 nM
CN(CCn1c2ccccc2c2cccnc21)Cc1ccc(CNC(=O)c2ccc3c(c2)C(=O)N(C2CCC(=O)NC2=O)C3=O)nc1 (stereo not drawn) [A127]	60 to 90%	3.6 ± 0.1 nM
O=C(Cc1cccc2ccccc12)NCc1ccc(CNC(=O)c2ccc3c(c2)C(=O)N(C2CCC(=O)NC2=O)C3=O)cn1 (stereo not drawn) [A128]	10 to 30%	2140 ± 788 nM
O=C(Cn1c2ccccc2c2cccnc21)NCc1ccc(CNC(=O)c2ccc3c(c2)C(=O)N(C2CCC(=O)NC2=O)C3=O)cn1 (stereo not drawn) [A129]	60 to 90%	36.1 ± 13.3 nM
CN(CCn1c2ccccc2c2cccnc21)Cc1ccc(CNC(=O)c2ccc3c(c2)C(=O)N(C2CCC(=O)NC2=O)C3=O)cn1 (stereo not drawn) [A130]	60 to 90%	4.7 ± 2.3 nM
O=C(Cn1c2ccccc2c2cccnc21)NCc1cnc(CNC(=O)c2ccc3c(c2)C(=O)N(C2CCC(=O)NC2=O)C3=O)nc1 (stereo not drawn) [A131]	60 to 90%	112 ± 16.5 nM
O=C(Cn1c2ccccc2c2cccnc21)NCc1ncc(CNC(=O)c2ccc3c(c2)C(=O)N(C2CCC(=O)NC2=O)C3=O)cn1 (stereo not drawn) [A132]	10 to 30%	4210 ± 659 nM
O=C(Cc1cccc2ccccc12)NCc1cnc(CNC(=O)c2ccc3c(c2)C(=O)N(C2CCC(=O)NC2=O)C3=O)s1 (stereo not drawn) [A133]	10 to 30%	5020 ± 23 nM
O=C(Cn1c2ccccc2c2cccnc21)NCc1cnc(CNC(=O)c2ccc3c(c2)C(=O)N(C2CCC(=O)NC2=O)C3=O)s1 (stereo not drawn) [A134]	60 to 90%	334 ± 83.5 nM
O=C(Cc1cccc2ccccc12)NCc1csc(CNC(=O)c2ccc3c(c2)C(=O)N(C2CCC(=O)NC2=O)C3=O)n1 (stereo not drawn) [A135]	30 to 60%	1710 ± 120 nM
O=C(Cn1c2ccccc2c2cccnc21)NCc1csc(CNC(=O)c2ccc3c(c2)C(=O)N(C2CCC(=O)NC2=O)C3=O)n1 (stereo not drawn) [A136]	60 to 90%	211 ± 45.9 nM
O=C(Cc1cccc2ccccc12)NCc1ccc(C2(NC(=O)c3ccc4c(c3)C(=O)N(C3CCC(=O)NC3=O)C4=O)CC2)cc1 (stereo not drawn) [A137]	60 to 90%	239 ± 35 nM
O=C(Cn1c2ccccc2c2cccnc21)NCc1ccc(C2(NC(=O)c3ccc4c(c3)C(=O)N(C3CCC(=O)NC3=O)C4=O)CC2)cc1 (stereo not drawn) [A138]	60 to 90%	12.4 ± 4.4 nM
